For 35 molecules, IC50 results are on record in patent US9242970B2 (ACTELION PHARMACEUTICALS LTD., priority 2010, dated 2016).

For assay [1], the target named is human orexin-2 receptor (Homo sapiens (Human), UniProt O43614). The experiment in a line: In vitro assay: intracellular calcium measurements (FLIPR), antagonistic activity. The class given is cell-based. The following applies: CHO cells, 3 nM orexin-A, marked values are geometric means of n = 2-6, read-out: IC50 OX2. A general note: Calcium flux is commonly read through the fluorescence of an indicator in the cells.

The target in assay [2] is human orexin-1 receptor (Homo sapiens (Human), UniProt O43613). The description is as above. The following applies: CHO cells, 3 nM orexin-A, marked values are geometric means of n = 2-6, read-out: IC50 OX1. In kind it is cell-based.
Where [3] appears, read: compound incubation time of 10 min.

pIC50: −log10 of the molar value. Like-named read-outs stand apart in the source and are kept apart here.

human orexin-2 receptor, sequence (O43614 whole entry): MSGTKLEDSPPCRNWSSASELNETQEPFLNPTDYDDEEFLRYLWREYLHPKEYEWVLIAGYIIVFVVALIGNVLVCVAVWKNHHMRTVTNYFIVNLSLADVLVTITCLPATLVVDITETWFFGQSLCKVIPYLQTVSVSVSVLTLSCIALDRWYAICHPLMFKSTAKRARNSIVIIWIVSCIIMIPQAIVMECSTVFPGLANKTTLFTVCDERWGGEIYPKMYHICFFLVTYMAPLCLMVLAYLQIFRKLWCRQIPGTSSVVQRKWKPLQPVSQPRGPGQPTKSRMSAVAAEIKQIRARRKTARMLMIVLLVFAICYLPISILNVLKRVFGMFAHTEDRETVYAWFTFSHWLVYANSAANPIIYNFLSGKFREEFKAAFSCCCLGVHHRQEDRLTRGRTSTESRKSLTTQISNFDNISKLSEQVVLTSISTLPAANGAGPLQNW
human orexin-1 receptor, sequence (O43613 whole entry): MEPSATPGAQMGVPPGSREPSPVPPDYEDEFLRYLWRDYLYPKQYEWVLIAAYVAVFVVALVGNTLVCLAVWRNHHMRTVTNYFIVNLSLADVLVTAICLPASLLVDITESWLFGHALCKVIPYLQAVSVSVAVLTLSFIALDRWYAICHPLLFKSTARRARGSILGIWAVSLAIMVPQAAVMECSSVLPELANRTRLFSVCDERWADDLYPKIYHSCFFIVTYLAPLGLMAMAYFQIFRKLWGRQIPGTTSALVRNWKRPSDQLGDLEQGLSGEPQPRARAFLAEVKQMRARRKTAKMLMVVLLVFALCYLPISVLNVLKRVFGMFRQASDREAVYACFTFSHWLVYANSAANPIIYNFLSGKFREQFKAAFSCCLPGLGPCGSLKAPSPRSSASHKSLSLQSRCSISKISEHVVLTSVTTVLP

Broadly, the pIC50 is the negative decadic logarithm of the IC50, by convention in mol/L. In the case of `CCOc1cc(F)cc(F)c1[C@@H]1C[C@H](F)C(=O)N1Cc1ccc(OC(F)(F)F)cc1` (racemic) [Example 438, rac-(3S*,5S*)-5-(2-ethoxy-4,6-difluorophenyl)-3-fluoro-1-(4-(trifluoromethoxy)benzyl)pyrrolidin-2-one], the pIC50 in assay [1] (compound incubation 120 min) is 7.43; in assay [2] (compound incubation 120 min), 6.04.
Take `CCOc1cc(F)cc(F)c1[C@@H]1C[C@H](Cl)C(=O)N1Cc1ccc(OC(F)(F)F)cc1` (racemic) [Example 439, rac-(3S*,5S*)-3-chloro-5-(2-ethoxy-4,6-difluorophenyl)-1-(4-(trifluoromethoxy)benzyl)pyrrolidin-2-one]: the pIC50 is 7.20 in assay [1] (compound incubation 120 min) and 6.24 in assay [2] (compound incubation 120 min).
Regarding `COc1cccc(OC)c1C1CCCC(=O)N1Cc1cnc2ccccc2c1` (stereo not shown) [Example 1, 6-(2,6-dimethoxyphenyl)-1-(quinolin-3-ylmethyl)piperidin-2-one], the pIC50 is 6.68 in assay [1] (setting [3]) and 6.19 in assay [2] (setting [3]).
For `COc1cccc(OC)c1C1CCCC(=O)N1Cc1ccc2sc(C)nc2c1` (stereo not shown) [Example 2, 6-(2,6-dimethoxyphenyl)-1-((2-methylbenzo[d]thiazol-5-yl)methyl)piperidin-2-one], the pIC50 in assay [1] (compound incubation 120 min) was 7.89; in assay [2] (compound incubation 120 min), 7.59.
Consider `COc1cccc(OC)c1C1CCCC(=O)N1Cc1ccc2ncccc2c1` (stereo not shown) [Example 3, 6-(2,6-dimethoxyphenyl)-1-(quinolin-6-ylmethyl)piperidin-2-one], for which the pIC50 is 6.00 in assay [1] (compound incubation 120 min) and 6.81 in assay [2] (compound incubation 120 min).
The corresponding values for `COc1cccc(OC)c1C1CCCC(=O)N1Cc1cnc(OC(F)F)c(Cl)c1` (stereo not shown) [Example 5, 1-((5-chloro-6-(difluoromethoxy)pyridin-3-yl)methyl)-6-(2,6-dimethoxyphenyl)piperidin-2-one] are 7.42 and 6.65.
Regarding `COc1cccc(OC)c1C1CCCC(=O)N1Cc1cccc(-c2ccc(F)cc2)n1` (stereo not shown) [Example 6, 6-(2,6-dimethoxyphenyl)-1-((6-(4-fluorophenyl)pyridin-2-yl)methyl)piperidin-2-one], the pIC50 in assay [1] (compound incubation 120 min) is 6.85; in assay [2] (compound incubation 120 min) it was 6.92.
The corresponding values for `COc1cccc(OC)c1C1CCCC(=O)N1Cc1cccc(-c2cccnc2)c1` (stereo not shown) [Example 7, 6-(2,6-dimethoxyphenyl)-1-(3-(pyridin-3-yl)benzyl)piperidin-2-one] are 7.26 and 7.15.
The corresponding values for `COc1cccc(OC)c1C1CCCC(=O)N1Cc1cncc(-c2ccccc2)c1` (stereo not shown) [Example 8, 6-(2,6-dimethoxyphenyl)-1-((5-phenylpyridin-3-yl)methyl)piperidin-2-one] are 6.15 and 5.77.
Consider `COc1cccc(OC)c1C1CCCC(=O)N1Cc1cccc(-c2ccncc2)c1` (stereo not shown) [Example 9, 6-(2,6-dimethoxyphenyl)-1-(3-(pyridin-4-yl)benzyl)piperidin-2-one], for which the pIC50 in assay [1] (compound incubation 120 min) was 7.19; in assay [2] (compound incubation 120 min) it was 7.54.
In the same order, the values of `COc1cccc(OC)c1C1CCCC(=O)N1Cc1cccc(-c2ccccn2)c1` (stereo not shown) [Example 10, 6-(2,6-dimethoxyphenyl)-1-(3-(pyridin-2-yl)benzyl)piperidin-2-one] are 8.10 and 8.05.
The corresponding values for `COc1cccc(OC)c1C1CCCC(=O)N1Cc1cccc(-c2ccccc2)n1` (stereo not shown) [Example 11, 6-(2,6-dimethoxyphenyl)-1-((6-phenylpyridin-2-yl)methyl)piperidin-2-one] are 7.37 and 7.47.
In the same order, the values of `COc1cccc(OC)c1C1CCCC(=O)N1Cc1ccnc(-c2ccccc2)c1` (stereo not shown) [Example 12, 6-(2,6-dimethoxyphenyl)-1-((2-phenylpyridin-4-yl)methyl)piperidin-2-one] are 7.47 and 7.60.
Turning to `COc1cccc(OC)c1C1CCCC(=O)N1Cc1cccc(N2CCCCC2)c1` (stereo not shown) [Example 13, 6-(2,6-dimethoxyphenyl)-1-(3-(piperidin-1-yl)benzyl)piperidin-2-one], the results for the pIC50 in assay [1] (compound incubation 120 min) and in assay [2] (compound incubation 120 min) were 7.34 and 7.66, respectively.
The corresponding values for `COc1cccc(OC)c1C1CCCC(=O)N1Cc1cccc(-c2nccs2)c1` (stereo not shown) [Example 14, 6-(2,6-dimethoxyphenyl)-1-(3-(thiazol-2-yl)benzyl)piperidin-2-one] are 8.40 and 8.40.
For the molecule `COc1cccc(OC)c1C1CCCC(=O)N1Cc1cccc2ccccc12` (stereo not shown) [Example 15, 6-(2,6-dimethoxyphenyl)-1-(naphthalen-1-ylmethyl)piperidin-2-one], the pIC50 in assay [1] (compound incubation 120 min) is 7.64; in assay [2] (compound incubation 120 min), 6.68.
Regarding `COc1cccc(OC)c1C1CCCC(=O)N1Cc1cccc(-c2csc(C)n2)c1` (stereo not shown) [Example 16, 6-(2,6-dimethoxyphenyl)-1-(3-(2-methylthiazol-4-yl)benzyl)piperidin-2-one], the figures for the pIC50 in assay [1] (compound incubation 120 min) and in assay [2] (compound incubation 120 min) were 8.70 and 8.52, respectively.
In the same order, the values of `COc1cccc(OC)c1C1CCCC(=O)N1Cc1cccc(N2CCOCC2)c1` (stereo not shown) [Example 17, 6-(2,6-dimethoxyphenyl)-1-(3-morpholinobenzyl)piperidin-2-one] are 6.18 and 6.68.
In the same order, the values of `COc1cccc(OC)c1C1CCCC(=O)N1Cc1ccc(-c2ccccc2)s1` (stereo not shown) [Example 18, 6-(2,6-dimethoxyphenyl)-1-((5-phenylthiophen-2-yl)methyl)piperidin-2-one] are 7.42 and 6.93.
The corresponding values for `COc1cccc(OC)c1C1CCCC(=O)N1Cc1cccc(-n2cccn2)c1` (stereo not shown) [Example 19, 1-(3-(1H-pyrazol-1-yl)benzyl)-6-(2,6-dimethoxyphenyl)piperidin-2-one] are 7.59 and 7.60.
`COc1cccc(OC)c1C1CCCC(=O)N1Cc1ccc2nccnc2c1` (stereo not shown) [Example 20, 6-(2,6-dimethoxyphenyl)-1-(quinoxalin-6-ylmethyl)piperidin-2-one]: the values for the negative logarithm of the IC50 (pIC50) in assay [1] (compound incubation 120 min) and in assay [2] (compound incubation 120 min) were 6.06 and 6.02, respectively.
The corresponding values for `COc1cccc(OC)c1C1CCCC(=O)N1Cc1cnc(-c2ccccc2)s1` (stereo not shown) [Example 21, 6-(2,6-dimethoxyphenyl)-1-((2-phenylthiazol-5-yl)methyl)piperidin-2-one] are 6.44 and 6.02.
In the same order, the values of `COc1cccc(OC)c1C1CCCC(=O)N1Cc1cc(-c2ccccc2)ccn1` (stereo not shown) [Example 22, 6-(2,6-dimethoxyphenyl)-1-((4-phenylpyridin-2-yl)methyl)piperidin-2-one] are 6.88 and 6.78.
The corresponding values for `COc1cccc(OC)c1C1CCCC(=O)N1Cc1cccc(-n2cncn2)c1` (stereo not shown) [Example 23, 1-(3-(1H-1,2,4-triazol-1-yl)benzyl)-6-(2,6-dimethoxyphenyl)piperidin-2-one] are 6.33 and 6.51.
Turning to `COc1cccc(OC)c1C1CCCC(=O)N1Cc1cccc(N2CCCC2)c1` (stereo not shown) [Example 24, 6-(2,6-dimethoxyphenyl)-1-(3-(pyrrolidin-1-yl)benzyl)piperidin-2-one], the figures for the pIC50 in assay [1] (compound incubation 120 min) and in assay [2] (compound incubation 120 min) were 7.51 and 7.66, respectively.
In the same order, the values of `COc1cccc(OC)c1C1CCCC(=O)N1Cc1cc(-c2ccccc2)on1` (stereo not shown) [Example 25, 6-(2,6-dimethoxyphenyl)-1-((5-phenylisoxazol-3-yl)methyl)piperidin-2-one] are 6.04 and 6.16.
The corresponding values for `COc1cccc(OC)c1C1CCCC(=O)N1Cc1cnn(-c2ccccc2)c1` (stereo not shown) [Example 26, 6-(2,6-dimethoxyphenyl)-1-((1-phenyl-1H-pyrazol-4-yl)methyl)piperidin-2-one] are 6.94 and 6.78.
In the same order, the values of `COc1cccc(OC)c1C1CCCC(=O)N1Cc1cccc(-n2ccnc2)c1` (stereo not shown) [Example 27, 1-(3-(1H-imidazol-1-yl)benzyl)-6-(2,6-dimethoxyphenyl)piperidin-2-one] are 6.74 and 6.87.
In the case of `COc1cccc(OC)c1C1CCCC(=O)N1Cc1cccc(N2CCCCC2)n1` (stereo not shown) [Example 28, 6-(2,6-dimethoxyphenyl)-1-((6-(piperidin-1-yl)pyridin-2-yl)methyl)piperidin-2-one], the pIC50 in assay [1] (compound incubation 120 min) was 7.96; in assay [2] (compound incubation 120 min) it was 7.68.
The corresponding values for `COc1cccc(OC)c1C1CCCC(=O)N1Cc1cccc(-c2ncccn2)c1` (stereo not shown) [Example 29, 6-(2,6-dimethoxyphenyl)-1-(3-(pyrimidin-2-yl)benzyl)piperidin-2-one] are 7.55 and 7.85.
The corresponding values for `COc1cccc(OC)c1C1CCCC(=O)N1Cc1ccc2oc3ccccc3c2c1` (stereo not shown) [Example 30, 1-(dibenzo[b,d]furan-2-ylmethyl)-6-(2,6-dimethoxyphenyl)piperidin-2-one] are 8.40 and 8.70.
In the same order, the values of `COc1cccc(OC)c1C1CCCC(=O)N1Cc1nc2ccccc2s1` (stereo not shown) [Example 31, 1-(benzo[d]thiazol-2-ylmethyl)-6-(2,6-dimethoxyphenyl)piperidin-2-one] are 6.07 and 6.03.
As to `COc1cccc(OC)c1C1CCCC(=O)N1Cc1ccc2c(c1)c1ccccc1n2C` (stereo not shown) [Example 32, 6-(2,6-dimethoxyphenyl)-1-((9-methyl-9H-carbazol-3-yl)methyl)piperidin-2-one], the pIC50 in assay [1] (compound incubation 120 min) was 6.88; in assay [2] (compound incubation 120 min), 7.30.
In the same order, the values of `COc1cccc(OC)c1C1CCCC(=O)N1Cc1cccc(-c2noc(C)n2)c1` (stereo not shown) [Example 33, 6-(2,6-dimethoxyphenyl)-1-(3-(5-methyl-1,2,4-oxadiazol-3-yl)benzyl)piperidin-2-one] are 7.30 and 7.41.
The corresponding values for `COc1cccc(OC)c1C1CCCC(=O)N1Cc1ccnc(N2CCCC2)c1` (stereo not shown) [Example 34, 6-(2,6-dimethoxyphenyl)-1-((2-(pyrrolidin-1-yl)pyridin-4-yl)methyl)piperidin-2-one] are 5.69 and 5.98.
